Measured values as given in ChEMBL document CHEMBL5634152, “The discovery of water-soluble indazole derivatives as potent microtubule polymerization inhibitors” (Eur J Med Chem, 2023).
pIC50: −log10 of the molar value. ≈ marks a conversion by molar mass, not a printed value. Calls of active or inactive are those of the source. No cut-off for these calls is given here.

Experiments:
A549 = assay: cells; conditions: Homo sapiens
Description: Antiproliferative activity against human A549 cells assessed as cell growth inhibition incubated for72 hrs by MTT assay

Huh-7 = assay: cells; conditions: Homo sapiens
Description: Antiproliferative activity against human Huh-7 cells assessed as cell growth inhibition incubated for72 hrs by MTT assay

T-24 = assay: cells; conditions: Homo sapiens
Description: Antiproliferative activity against human T-24 cells assessed as cell growth inhibition incubated for72 hrs by MTT assay

Tubulin (Homo sapiens) = Tubulin (Homo sapiens) (UniProt P68371+Q9H4B7+P0DPH7+P68366+Q13509+Q71U36+P04350+Q3ZCM7+P07437+P68363+Q9BQE3+Q6PEY2+Q13885+Q9BVA1+Q9BUF5); assay: Binding affinity to tubulin polymerization at colchicine-binding site in human A549 cells assessed as N,N'-ethylene- bis(iodoacetamide)/beta-tubulin adduct formation at 5 to 25 uM incubated for 2 hrs by chemiluminescence based assay; assay type: cell-based; conditions: dose 5-25 µM
A549/TR = assay: Antiproliferative activity against human A549/Taxol cells assessed as cell growth inhibition incubated for72 hrs by MTT assay; assay type: functional, cell-based
[1] = Resistance index, ratio of IC50 for human A549/Taxol cells to IC50 for human A549 cells; assay type: functional
[2] = Aqueous solubility of compound in pH 7.4 at 10 mg/ml by HPLC analysis; assay type: physicochemical; conditions: buffer, read-out: solubility
[3] = Lipophilicity, logP of compound in n-octanol-water at 5 mg/ml incubated for 8 hrs by HPLC analysis; assay type: physicochemical

Structure (SMILES)	pIC50 (A549)	pIC50 (Huh-7)	pIC50 (T-24)	Activity (Tubulin (Homo sapiens))	pIC50 (A549/TR)	Ratio IC50 [1]	solubility [2] [µg/mL]	logP at 8 h [3]
COc1cc(-n2nc(C)c3ccc(-c4ccc(C)cc4)cc32)cc(OC)c1OC	6.72	6.92	6.85					
COc1cc(-n2ncc3ccc(-c4ccc(Cl)cc4)cc32)cc(OC)c1OC	6.70	6.82	6.49					
COc1cc2c(c(OC)c1OC)-c1ccc(OC)c(=O)cc1[C@@H](NC(C)=O)CC2 [COLCHICINE]		7.62	7.34					
COc1ccc(-c2ccc3c(C)nn(-c4cc(OC)c(OC)c(OC)c4)c3c2)cn1	5.82	5.97	5.65					
COc1ccc(-c2ccc3cnn(-c4cc(OC)c(OC)c(OC)c4)c3c2)cc1	7.04	7.00	6.96					
COc1cc(-c2ccc3c(C)nn(-c4ccc(OC(F)(F)F)cc4)c3c2)cc(OC)c1OC	4.71	< 4.60	< 4.60					
CC[C@]1(O)C[C@H]2CN(CCc3c([nH]c4ccccc34)[C@@](C(=O)OC)(c3cc4c(cc3OC)N(C=O)[C@H]3[C@@](O)(C(=O)OC)[C@H](OC(C)=O)[C@]5(CC)C=CCN6CC[C@]43[C@@H]65)C2)C1				inactive				
COc1ccc(-n2nc(C)c3ccc(-c4cc(OC)c(OC)c(OC)c4)cc32)cc1	< 4.60	< 4.60	< 4.60					
COc1cc(-c2ccc3c(C)nn(-c4ccc(C)cc4)c3c2)cc(OC)c1OC	< 4.60	< 4.60	< 4.60					
COc1cc(-n2ncc3ccc(-c4cccc5[nH]ccc45)cc32)cc(OC)c1OC	7.60	7.55	7.52		7.60	1	5.09 (≈ 12.7 µM)	3.1
COc1cc(-n2ncc3ccc(-c4ccc(F)cc4)cc32)cc(OC)c1OC	7.05	6.96	6.57					
CC(=O)O[C@H]1C(=O)[C@@]2(C)[C@H]([C@H](OC(=O)c3ccccc3)[C@]3(O)C[C@H](OC(=O)[C@H](O)[C@@H](NC(=O)c4ccccc4)c4ccccc4)C(C)=C1C3(C)C)[C@]1(OC(C)=O)CO[C@@H]1C[C@@H]2O [PACLITAXEL]					5.25	403.8		
COc1ccc(-c2ccc3cnn(-c4cc(OC)c(OC)c(OC)c4)c3c2)cn1	6.82	6.48	6.72					
COc1cc(-c2ccc3cnn(-c4ccc(C)cc4)c3c2)cc(OC)c1OC	< 4.60	< 4.60	< 4.60					
